Assay results taken from PubChem BioAssay (NCI).
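How tested: cells in 96-well plates exposed to compound for 48 hours at five concentrations. Here, GI50 denotes the concentration required for 50% inhibition of growth. At the TGI there is no net growth.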

Tests used:
Assay in all cases: NCI anticancer screen, dose series, 48 h
RPMI-8226 leukemia = test system: RPMI-8226 leukemia
KM12 colon = test system: KM12 colon
HOP-62 NSCLC = test system: HOP-62 NSCLC
CAKI-1 renal = test system: CAKI-1 renal
UO-31 renal = test system: UO-31 renal
U251 CNS = test system: U251 CNS
SN12C renal = test system: SN12C renal
K-562 leukemia = test system: K-562 leukemia
SNB-19 CNS = test system: SNB-19 CNS
NCI-H460 lung = test system: NCI-H460 lung
OVCAR-4 ovarian = test system: OVCAR-4 ovarian
HCT-15 colon = test system: HCT-15 colon
NCI-H23 lung = test system: NCI-H23 lung
DU-145 prostate = test system: DU-145 prostate
A498 renal = test system: A498 renal
OVCAR-8 ovarian = test system: OVCAR-8 ovarian
SF-268 CNS = test system: SF-268 CNS
PC-3 prostate = test system: PC-3 prostate
OVCAR-3 ovarian = test system: OVCAR-3 ovarian
HL-60(TB) leukemia = test system: HL-60(TB) leukemia
786-0 renal = test system: 786-0 renal
A549 NSCLC = test system: A549 NSCLC
UACC-257 melanoma = test system: UACC-257 melanoma
COLO 205 colon = test system: COLO 205 colon
SK-MEL-5 melanoma = test system: SK-MEL-5 melanoma
LOX IMVI melanoma = test system: LOX IMVI melanoma
SK-MEL-2 melanoma = test system: SK-MEL-2 melanoma
CCRF-CEM leukemia = test system: CCRF-CEM leukemia
SR leukemia = test system: SR leukemia
BT-549 breast = test system: BT-549 breast
SNB-75 CNS = test system: SNB-75 CNS
MOLT-4 leukemia = test system: MOLT-4 leukemia
HCT-116 colon = test system: HCT-116 colon
MALME-3M melanoma = test system: MALME-3M melanoma
MCF7 breast = test system: MCF7 breast
MDA-MB-231 breast = test system: MDA-MB-231 breast
SK-OV-3 ovarian = test system: SK-OV-3 ovarian
SF-539 CNS = test system: SF-539 CNS
HCC-2998 colon = test system: HCC-2998 colon
SF-295 CNS = test system: SF-295 CNS
M14 melanoma = test system: M14 melanoma
HS 578T breast = test system: HS 578T breast
HT29 colon = test system: HT29 colon
TK-10 renal = test system: TK-10 renal
NCI-H226 lung = test system: NCI-H226 lung
SW-620 colon = test system: SW-620 colon
UACC-62 melanoma = test system: UACC-62 melanoma
NCI-H522 lung = test system: NCI-H522 lung
IGROV1 ovarian = test system: IGROV1 ovarian
NCI/ADR-RES ovarian = test system: NCI/ADR-RES ovarian
SK-MEL-28 melanoma = test system: SK-MEL-28 melanoma
ACHN renal = test system: ACHN renal
MDA-MB-435 = test system: MDA-MB-435
EKVX NSCLC = test system: EKVX NSCLC
T-47D breast = test system: T-47D breast
HOP-92 NSCLC = test system: HOP-92 NSCLC
OVCAR-5 ovarian = test system: OVCAR-5 ovarian
RXF 393 renal = test system: RXF 393 renal

## COc1ccc2c(C3=C(c4cn(C)c5ccccc45)C(=O)NC3=O)cn(C)c2c1
RPMI-8226 leukemia
  GI50: 0.11 µM
  TGI: > 25 µM
KM12 colon
  GI50: 0.111 µM
  TGI: 7.24 µM
HOP-62 NSCLC
  GI50: 0.122 µM
  TGI: > 25 µM
CAKI-1 renal
  GI50: 0.0941 µM
  TGI: > 25 µM
UO-31 renal
  GI50: 3.69 µM
  TGI: > 25 µM
U251 CNS
  GI50: 0.102 µM
  TGI: > 25 µM
SN12C renal
  GI50: 0.221 µM
  TGI: > 25 µM
K-562 leukemia
  GI50: 0.101 µM
  TGI: > 25 µM
SNB-19 CNS
  GI50: > 25 µM
  TGI: > 25 µM
NCI-H460 lung
  GI50: 0.0982 µM
  TGI: > 25 µM
OVCAR-4 ovarian
  GI50: 0.258 µM
  TGI: > 25 µM
HCT-15 colon
  GI50: 0.116 µM
  TGI: > 25 µM
NCI-H23 lung
  GI50: 0.143 µM
  TGI: > 25 µM
DU-145 prostate
  GI50: 0.137 µM
  TGI: > 25 µM
A498 renal
  GI50: 0.054 µM
  TGI: 0.215 µM
OVCAR-8 ovarian
  GI50: 0.15 µM
  TGI: > 25 µM
SF-268 CNS
  GI50: 0.292 µM
  TGI: > 25 µM
PC-3 prostate
  GI50: 0.0936 µM
  TGI: > 25 µM
OVCAR-3 ovarian
  GI50: 0.0841 µM
  TGI: 1.03 µM
HL-60(TB) leukemia
  GI50: 0.0998 µM
786-0 renal
  GI50: 0.255 µM
  TGI: > 25 µM
A549 NSCLC
  GI50: 0.135 µM
  TGI: > 25 µM
UACC-257 melanoma
  GI50: 1.61 µM
  TGI: > 25 µM
COLO 205 colon
  GI50: 0.0917 µM
  TGI: 0.323 µM
SK-MEL-5 melanoma
  GI50: 0.0899 µM
  TGI: 2.57 µM
LOX IMVI melanoma
  GI50: 0.154 µM
  TGI: > 25 µM
SK-MEL-2 melanoma
  GI50: 0.597 µM
  TGI: > 9.97 µM
CCRF-CEM leukemia
  GI50: 0.0961 µM
  TGI: > 25 µM
SR leukemia
  GI50: 0.0717 µM
  TGI: > 25 µM
BT-549 breast
  TGI: > 25 µM
SNB-75 CNS
  GI50: 0.0567 µM
  TGI: > 25 µM
MOLT-4 leukemia
  GI50: 0.24 µM
  TGI: > 24 µM
HCT-116 colon
  GI50: 0.112 µM
  TGI: > 25 µM
MALME-3M melanoma
  GI50: > 25 µM
  TGI: > 25 µM
MCF7 breast
  GI50: 0.0853 µM
  TGI: > 25 µM
MDA-MB-231 breast
  GI50: 0.542 µM
  TGI: > 25 µM
SK-OV-3 ovarian
  GI50: 0.138 µM
  TGI: > 25 µM
SF-539 CNS
  GI50: 0.0556 µM
  TGI: 0.134 µM
HCC-2998 colon
  GI50: 0.41 µM
  TGI: > 25 µM
SF-295 CNS
  GI50: 0.0649 µM
M14 melanoma
  GI50: 0.0999 µM
  TGI: > 25 µM
HS 578T breast
  GI50: 0.113 µM
  TGI: > 25 µM
HT29 colon
  GI50: 0.098 µM
  TGI: > 14 µM
TK-10 renal
  GI50: > 25 µM
  TGI: > 25 µM
NCI-H226 lung
  GI50: 2.63 µM
  TGI: > 25 µM
SW-620 colon
  GI50: 0.104 µM
  TGI: > 25 µM
UACC-62 melanoma
  GI50: 0.137 µM
  TGI: > 25 µM
NCI-H522 lung
  GI50: 0.0742 µM
  TGI: 0.902 µM
IGROV1 ovarian
  GI50: 0.147 µM
  TGI: > 25 µM
NCI/ADR-RES ovarian
  GI50: 0.0928 µM
  TGI: > 25 µM
SK-MEL-28 melanoma
  GI50: 0.166 µM
  TGI: > 25 µM
ACHN renal
  GI50: 0.254 µM
  TGI: > 25 µM

## O=S(=O)(NC1=NCCN1C(=S)SN1CCn2c1nsc2=S)c1ccc(OC(F)(F)F)cc1
RPMI-8226 leukemia
  GI50: 6.1 µM
  TGI: > 100 µM
KM12 colon
  GI50: 8.11 µM
  TGI: 22.8 µM
MDA-MB-435
  GI50: 4.47 µM
  TGI: 24.5 µM
EKVX NSCLC
  GI50: 5.11 µM
  TGI: 19.6 µM
HOP-62 NSCLC
  GI50: 16.3 µM
  TGI: 33 µM
CAKI-1 renal
  GI50: 17.5 µM
  TGI: 74.5 µM
UO-31 renal
  GI50: 20.5 µM
  TGI: 41.5 µM
U251 CNS
  GI50: 14.4 µM
  TGI: 29.4 µM
SN12C renal
  GI50: 14.5 µM
  TGI: 30.3 µM
K-562 leukemia
  GI50: 4.02 µM
  TGI: 19.8 µM
SNB-19 CNS
  GI50: 16.8 µM
  TGI: 32.1 µM
NCI-H460 lung
  GI50: 13.1 µM
  TGI: 48.5 µM
OVCAR-4 ovarian
  GI50: 14.6 µM
  TGI: 31.6 µM
HCT-15 colon
  GI50: 8.64 µM
  TGI: 26.2 µM
NCI-H23 lung
  GI50: 12.7 µM
  TGI: 39 µM
DU-145 prostate
  GI50: 2.69 µM
  TGI: 12.1 µM
A498 renal
  GI50: 15.9 µM
  TGI: 29.7 µM
OVCAR-8 ovarian
  GI50: 16.3 µM
  TGI: 39.3 µM
SF-268 CNS
  GI50: 11 µM
  TGI: 98.1 µM
PC-3 prostate
  GI50: 13.1 µM
  TGI: 37.2 µM
T-47D breast
  GI50: 13.9 µM
  TGI: 44.4 µM
OVCAR-3 ovarian
  GI50: 7.63 µM
  TGI: 22.9 µM
HL-60(TB) leukemia
  GI50: 2.88 µM
  TGI: 7.35 µM
786-0 renal
  GI50: 8.53 µM
  TGI: 21.6 µM
HOP-92 NSCLC
  GI50: 25.1 µM
  TGI: 44.1 µM
A549 NSCLC
  GI50: 21.1 µM
  TGI: 54.3 µM
UACC-257 melanoma
  GI50: 15.5 µM
  TGI: 30 µM
COLO 205 colon
  GI50: 10.7 µM
  TGI: 28.2 µM
SK-MEL-5 melanoma
  GI50: 8.49 µM
  TGI: 21.8 µM
LOX IMVI melanoma
  GI50: 8.6 µM
  TGI: 22.9 µM
OVCAR-5 ovarian
  GI50: 21.8 µM
  TGI: 36.7 µM
SK-MEL-2 melanoma
  GI50: 6.58 µM
  TGI: 21 µM
CCRF-CEM leukemia
  GI50: 4.01 µM
  TGI: > 100 µM
SR leukemia
  GI50: 1.74 µM
  TGI: 5.76 µM
SNB-75 CNS
  GI50: 14.7 µM
  TGI: 34.4 µM
MOLT-4 leukemia
  GI50: 2.04 µM
  TGI: 7.39 µM
HCT-116 colon
  GI50: 6.15 µM
  TGI: 22.3 µM
MALME-3M melanoma
  GI50: 5.25 µM
  TGI: 32.7 µM
MCF7 breast
  GI50: 4.52 µM
  TGI: 25.2 µM
MDA-MB-231 breast
  GI50: 15.1 µM
  TGI: 36.1 µM
SK-OV-3 ovarian
  GI50: 19.5 µM
  TGI: 34.6 µM
SF-539 CNS
  GI50: 1.31 µM
  TGI: 12.1 µM
HCC-2998 colon
  GI50: 12.7 µM
  TGI: 26.1 µM
RXF 393 renal
  GI50: 2.77 µM
  TGI: 8.1 µM
M14 melanoma
  GI50: 25.9 µM
  TGI: > 100 µM
HS 578T breast
  GI50: 4.83 µM
  TGI: 33.1 µM
HT29 colon
  GI50: 11.4 µM
  TGI: > 100 µM
TK-10 renal
  GI50: 11.3 µM
  TGI: 24.6 µM
NCI-H226 lung
  GI50: 18 µM
  TGI: 38.7 µM
SW-620 colon
  GI50: 9.62 µM
  TGI: 24.3 µM
UACC-62 melanoma
  GI50: 11.6 µM
  TGI: 24.4 µM
NCI-H522 lung
  GI50: 2.92 µM
  TGI: 9.8 µM
IGROV1 ovarian
  GI50: 11.4 µM
  TGI: 29.1 µM
NCI/ADR-RES ovarian
  GI50: 20.5 µM
  TGI: > 100 µM
SK-MEL-28 melanoma
  GI50: 22.7 µM
  TGI: 64 µM
ACHN renal
  GI50: 10.1 µM
  TGI: 23 µM

## C=C(C)[C@@H]1CCC[C@]2(COS(=O)(=O)c3ccc(C)cc3)CC[C@]3(C)[C@@H](CC[C@@H]4[C@@]5(C)CCCNC(C)(C)[C@@H]5CC[C@]43C)[C@@H]12
RPMI-8226 leukemia
  GI50: 1.86 µM
  TGI: 4.54 µM
CAKI-1 renal
  GI50: 1.74 µM
  TGI: 3.15 µM
A498 renal
  GI50: 1.63 µM
  TGI: 3.14 µM
SK-OV-3 ovarian
  GI50: 1.87 µM
  TGI: 3.3 µM
